Test results taken from US7067714B1 (priority 1999, dated 2006).

Legend:
N-type Ca channel = type: cell-based, mouse

| Compound | influx of Ca2+ inhibited by ω-conotoxin GVIA (N-type Ca channel) | increase in atrial muscle contractile force by nerve stimulus (isolated mouse atrium) |
| --- | --- | --- |
| ω-conotoxin GVIA | not observed | – |
| NC1=N[C@H](O)[C@H]2[C@H]3O[C@]4(O)O[C@@H]([C@@H](O)[C@@]2(N1)[C@@H]4O)[C@]3(O)CO [tetrodotoxin] | – | completely inhibited |
